Test results: article PMC8406298, “Discovery of Fungus-Specific Targets and Inhibitors Using Chemical Phenotyping of Pathogenic Spore Germination” (mBio, 2021)

Experiments:
[1] = system: normal human dermal fibroblasts (NHDF) cells; experiment: Fibroblast cytotoxicity (CellTiter-Glo); format: cell-based; settings: 10 µM
Method in brief: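 Normal human dermal fibroblasts, 1 × 10^3 per well, exposed to compounds at 10 μM for 72 h at 37°C. Viability read as ATP-dependent CellTiter-Glo luminescence. Dose-response runs titrated compounds from 80 μM to 0.5 μM in duplicate.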

[2] = system: Cryptococcus yeast (CHY3833 and CHY3836); experiment: Yeast replication secondary screen (OD600); format: cell-based, Cryptococcus neoformans serotype D (deneoformans); settings: 10 μM, 12 h at 30°C
Method: (ii) Yeast replication. CHY3833 and CHY3836 were each grown in YPD liquid overnight at 30°C to saturation and then resuspended in 0.5× YPD at an OD600 of 0.005. Strains were aliquoted into 384-well plates with inhibitors and grown for 12 h at 30°C at […] before OD600 readings were taken. Compounds that caused a >10% decrease in growth were considered yeast growth inhibitors.

SMILES | Cytotoxicity: Relative Cell Viability (% of Negative Control) [1] | Yeast Inhibition: % Inhibition [2]
CN(C)/C=C/c1cc(=S)c2ccccc2s1 [compound 5991625] | 72.5 % of Negative Control | 65.3%
NC(=O)c1ccsc1NC(=O)/C=C/c1ccccc1 [compound 6104220] | 50.8 % of Negative Control | 51.7%
C(=C\c1cccs1)/c1nnc(-c2cccs2)o1 [compound 6263817] | 84.3 % of Negative Control | 49.0%
COc1ccc(Nc2nc3ccc(OC)cc3s2)cc1 [compound 7086348] | 91.3 % of Negative Control | 31.0%
O=S(=O)(NCc1csc(-c2ccccc2)n1)c1cc(Cl)ccc1Cl [compound 7119035] | 89.2 % of Negative Control | 38.8%
CC(=O)c1cccc(NC(=O)c2cc(Cl)sc2Cl)c1 [compound 7120750] | 79.8 % of Negative Control | 72.7%
NC(=O)c1ccsc1NC(=O)c1ccc(Cl)cc1Cl [compound 7167022] | 83.5 % of Negative Control | 52.4%
O=C(COc1coc(CN2CCc3ccccc32)cc1=O)OCc1ccccc1 [compound 7178481] | 88.3 % of Negative Control | 15.8%
O=C(/C=C/c1cccc(F)c1)c1ccc[nH]1 [compound 7185492] | 40.0 % of Negative Control | 99.0%
O=C(/C=C/c1cccc(F)c1)c1cccs1 [compound 7185494] | 45.7 % of Negative Control | 101.7%
O=C(Nc1nc2c(Br)cccc2s1)C1CC1 [compound 7202929] | 66.1 % of Negative Control | 16.5%
CCCC(=O)N1CCN(c2nc3c(C)c(Cl)ccc3s2)CC1 [compound 7294823] | 104.9 % of Negative Control | 31.5%
CCCc1cc(C(=O)OC)c(N2C(=O)C=CC2=O)s1 [compound 7456205] | 4.1 % of Negative Control | 101.6%
c1ccc(Cn2nnc3c(Sc4ncco4)ncnc32)cc1 [compound 7471335] | 4.1 % of Negative Control | 101.6%
Cc1nc(-c2ccc(F)cc2)sc1CCNC(=O)c1ccc(Br)o1 [compound 7503016] | 97.2 % of Negative Control | 20.4%
Cc1ccc(NS(=O)(=O)N2CCCCCC2)cc1Cl [compound 8720355] | 71.9 % of Negative Control | 45.8%
CCc1ccccc1NC(=O)c1cc(C)oc1C [compound 8839503] | 103.5 % of Negative Control | 37.3%
COc1ccc(CCNC(=O)c2c(O)nc3ccccn3c2=O)cc1OC [compound 16010290] | 103.5 % of Negative Control | -0.7%
O=C(C1COc2ccccc2O1)N1CCN(c2nc3c(F)cccc3s2)CC1 (centres unmarked) [compound 16032794] | 115.2 % of Negative Control | 5.2%
CCOC(=O)c1ccc(N2C(=O)CC(SCC(=O)Nc3ccc(S(N)(=O)=O)cc3)C2=O)cc1 (centres unmarked) [compound 16187117] | 118.0 % of Negative Control | 83.7%
O=C1NC(=S)S/C1=C\c1ccc(OC(F)(F)F)cc1 [compound 16433415] | 79.7 % of Negative Control | 82.9%
OC(COCC12CC3CC(CC(C3)C1)C2)CN1CCc2ccccc2C1 (centres unmarked) [compound 16456321] | 12.1 % of Negative Control | 84.7%
OC(COc1ccc(C23CC4CC(CC(C4)C2)C3)cc1)C[N+]1(Cc2ccccc2)CCOCC1 (centres unmarked) [compound 16456368] | 2.8 % of Negative Control | 101.6%
Cc1ccc(-c2nnc(Cn3cnc4ccccc43)o2)cc1 [compound 16456942] | 69.7 % of Negative Control | 57.7%
O=C(Nc1nc2ccccc2s1)C1CCCCN1S(=O)(=O)c1ccc(Cl)s1 (centres unmarked) [compound 16801811] | 86.9 % of Negative Control | 24.0%

SMILES | Cytotoxicity: Relative Cell Viability (% of Negative Control) [1] | Yeast Inhibition: % Inhibition [2]
Cc1ccc(OCCOCC(O)CN2CCN(c3ccc(F)cc3)CC2)cc1C (centres unmarked) [compound 16804490] | 94.5 % of Negative Control | 17.9%
O=C1C(NS(=O)(=O)c2ccccc2)=C/C(=N\S(=O)(=O)c2ccc(F)cc2)c2ccccc21 [compound 16805904] | 89.3 % of Negative Control | -24.2%
O=C(COc1ccc2ccccc2c1)NCC1COC2(CCCC2)O1 (centres unmarked) [compound 16823609] | 99.9 % of Negative Control | 2.4%
CSC1=Nc2cccnc2Nc2ccccc21 [compound 16824016] | 94.9 % of Negative Control | 20.9%
Cc1cccc(NC(=O)CC2SC(=O)N(c3ccc(F)cc3)C2=O)c1 (centres unmarked) [compound 16876071] | 86.9 % of Negative Control | 58.1%
COC(=O)Nc1nc(CC(=O)N2CCN(c3cccc(Cl)c3Cl)CC2)cs1 [compound 16883840] | 62.6 % of Negative Control | 3.5%
COc1ccc2nc(NS(=O)(=O)c3ccc(Cl)s3)sc2c1 [compound 16934153] | 76.4 % of Negative Control | -7.4%
O=S(=O)(Nc1nc2c(Cl)cccc2s1)c1ccc(Cl)s1 [compound 16934160] | 75.3 % of Negative Control | -6.1%
O=S(=O)(Nc1nc2c(F)cccc2s1)c1ccc(Cl)s1 [compound 16934170] | 77.5 % of Negative Control | -6.6%
O=C(Cn1c(=O)n(Cc2cccnc2)c(=O)c2ncccc21)Nc1ccc2c(c1)OCO2 [compound 16951905] | 101.3 % of Negative Control | -5.5%
O=C(Cn1c(=O)n(Cc2ccncc2)c(=O)c2ncccc21)Nc1ccc(F)c(Cl)c1 [compound 16951979] | 102.8 % of Negative Control | 27.1%
Cc1ccccc1N=c1scc(-c2ccc(F)cc2)n1CCO [compound 16955786] | 85.9 % of Negative Control | 21.9%
Fc1ccc(Nc2ccnc3ccc(Cl)cc23)c(F)c1 [compound 17016619] | 67.9 % of Negative Control | 34.0%
CCn1c(SC/C=C\c2ccccc2)nnc1-c1ccncc1 [compound 18558862] | 88.2 % of Negative Control | 36.7%
COC(=O)c1ccc(Cn2c(S(C)(=O)=O)nc3ccccc32)cc1 [compound 18576765] | 88.5 % of Negative Control | 3.8%
O=C(CCSc1ccc(Cl)cc1)Nc1ccc2scnc2c1 [compound 18585549] | 96.1 % of Negative Control | 29.1%
COc1ccc(SCCCC(=O)Nc2ncnc3sccc23)cc1 [compound 18585630] | 104.7 % of Negative Control | 15.2%
CC1CNc2ccccc2N(Cc2ccc(Br)cc2)C1=O (centres unmarked) [compound 20896311] | 94.5 % of Negative Control | 5.6%
Cc1oc2cc(OCCN3CCN(c4ccccc4F)CC3)ccc2c(=O)c1-c1ccccc1 [compound 24280258] | 103.4 % of Negative Control | 7.5%
Cc1cc(-c2nnc(NC(=O)c3ccc(C(=O)c4ccccc4)cc3)o2)nn1C [compound 25283140] | 79.9 % of Negative Control | -15.6%
CCCC(CCC)C(=O)N1CCN(c2ccc(-c3cccnc3)nn2)CC1 [compound 25283686] | 103.7 % of Negative Control | 2.8%
Cc1ccn(-c2ccc(N3CCN(C(=O)c4ccccc4Br)CC3)nn2)n1 [compound 25667819] | 101.9 % of Negative Control | -7.4%
Cc1cc(NC(=O)c2cccc(Oc3ccccc3)c2)on1 [compound 25813521] | 105.8 % of Negative Control | 19.4%
CN1C(=O)c2cccc(NC(=O)c3ccnn3C)c2C1=O [compound 25835862] | 104.6 % of Negative Control | 41.6%
